The conditions of series [1]: Morisette et al., Advanced Drug Delivery Reviews 56 (2004) 275-300; cited from earlier work.
Series [2] is described as follows: Parallel phase equilibrium experiments in suspensions of 32 solvents and solvent mixtures, Raman spectra grouped into classes. The format is physicochemical. The conditions noted are these: 64 experiments, 32 solvents/solvent mixtures; for number of different classes of Raman spectra (ideally corresponding to different solid forms of sertraline HCl): 48 hours shaking, temperature cycled between 18° C. and 28° C., similarity factor 0.5; for occurrence of form II among the solid forms obtained: 48 hours, 18° C. to 28° C., verified against reference spectra, HCl.
Protocol: A reference experiment with the stable form I as starting material is designed in such a way that 64 experiments are carried out for establishing the phase equilibrium in suspensions of 32 different solvents and solvent mixtures. For this purpose, 32 of the vessels in a 96-well quartz microtitre plate are each filled with about 5 mg of sertraline HCl form 1, and 100 microlitres of the corresponding solvent are then introduced into each vessel in accordance with the plan below, and the plate is closed with seals.
The microtitre plate is then shaken on a mechanical shaker (Eppendorf, Thermomixer Comfort) for 48 hours, the temperature of the mechanical shaker being changed cydically between 18° C. and 28° C. A cycle corresponds to one hour. The shaking frequency is 500 per minute. After a time of 48 hours for establishing equilibrium, the microtitre plate is removed from the mechanical shaker and the solid in each of the occupied vessels is investigated directly in the suspension using a Raman microscope (Renishaw Raman microscope system RM 1000). One or two Raman spectra are recorded in each vessel. The solvents in each vessel are then evaporated with the aid of a seal system having flow-through channels according to WO 03/026797 under nitrogen, a flow rate of about 0.03 litre/hour being established. Altogether, 80 Raman spectra are recorded in 64 experiments (32 directly from the suspension and 32 from the dried suspension).
The measured Raman spectra are divided into different classes of spectra on the basis of their differences. A separate evaluation programme which carries out an automatic comparison of measured spectra on the basis of the wave numbers of emission maxima in the Raman spectrum and generates a classification is used for this purpose. A distinguishing criterion is a similarity factor which is determined by visual assessment of selected, individual spectra.
Similarly to the reference example described above, 64 experiments are carried out in 32 different solvents and solvent mixtures in 32 vessels of a 96-well microtitre plate. For this purpose, each of the 32 vessels is occupied with 3 mg of the amorphous form. 100 microlitres of solvent according to the plan given in the comparative example are then filled into each of the 32 vessels, and the plate is closed with seals. The microtitre plate is then shaken on a mechanical shaker (Eppendorf, Thermomixer Comfort), the temperature of the mechanical shaker being changed cyclically between 18° C. and 28° C. A cycle corresponds to one hour, and the shaking frequency is 500 per minute. After a time of 48 hours for establishing the equilibrium, the microtitre plate is removed from the mechanical shaker and the solid in each of the occupied vessels is investigated directly in the suspension using a Raman microscope. One or two Raman spectra are recorded in each vessel. The solvents in each vessel are then evaporated with the aid of a seal system having flow-through channels according to WO 03/026797 under nitrogen, a flow rate of about 0.03 litre per hour being established. Altogether, 92 Raman spectra are recorded in 64 experiments (32 directly from the suspension and 32 from the dried suspension).

Molecules are shown by their SMILES. Counter-ions that a name gives are not always drawn.

Consider `CN[C@H]1CC[C@@H](c2ccc(Cl)c(Cl)c2)c2ccccc21` [sertraline HCl], for which the “number of different crystal forms mentioned in the literature” value in series [1] is listed as “about 27”.

Regarding `CN[C@H]1CC[C@@H](c2ccc(Cl)c(Cl)c2)c2ccccc21` [isopropanol solvate of sertraline HCl, sertraline HCl], the “number of different classes of Raman spectra (ideally corresponding to different solid forms of sertraline HCl)” value in series [2] turned out to be 16.

Regarding `CN[C@H]1CC[C@@H](c2ccc(Cl)c(Cl)c2)c2ccccc21` [sertraline HCl form I, sertraline HCl], in series [2], the “number of different classes of Raman spectra (ideally corresponding to different solid forms of sertraline HCl)” value turned out to be 11 and the “occurrence of form II among the solid forms obtained” value is given as “the important form II did not form”.

As to `CN[C@H]1CC[C@@H](c2ccc(Cl)c(Cl)c2)c2ccccc21` [amorphous form of sertraline HCl, sertraline HCl], in series [2], the “number of different classes of Raman spectra (ideally corresponding to different solid forms of sertraline HCl)” value was 25; the “occurrence of form II among the solid forms obtained” value is “both the thermodynamically stable form I and the important form II are contained in these classes”.
